Measured values as given in patent US9839642B2, “Beta-tetrazolyl-propionic acids as metallo-beta-lactamase inhibitors” (priority 2014, dated 2017).
Like-named read-outs stand apart in the source and are kept apart here.

What was measured:
[1] = test system: Escherichia coli expressing NDM-1 (CLB30016); test: Antibiotic potentiation activity: synergistic concentration (MITC95) with imipenem, growth by OD600; type: cell-based
Method in brief: (§1)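 Strains grown overnight at 35° C, resuspended in saline, diluted 1:100 into 1.1×CAMHB; imipenem at 1 μg/ml or 4 μg/ml with test compound 200 μM to 0.195 μM. Incubated 22 hours to 24 hours at 35° C, OD600 read; MITC95 is lowest compound concentration inhibiting 95% of growth.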

[2] = test system: Serratia marcescens expressing IMP-1 (CL5741); test: as above; type: cell-based
Method in brief: as §1

[3] = test system: Klebsiella pneumoniae expressing VIM-1 (IHMA599644); test: as above; type: cell-based
Method in brief: as §1

IMP-1 = IMP-1 (Serratia marcescens, UniProt P52699); test: Enzyme activity: determination of IC50, fluorescence assay with CCF2-FA substrate; type: biochemical; conditions: CCF2-FA 1.25 μM, 2 hours at 25° C., read-out: IMP1 IC50
IMP-1, sequence (P52699 19-246, looked up, species assumed): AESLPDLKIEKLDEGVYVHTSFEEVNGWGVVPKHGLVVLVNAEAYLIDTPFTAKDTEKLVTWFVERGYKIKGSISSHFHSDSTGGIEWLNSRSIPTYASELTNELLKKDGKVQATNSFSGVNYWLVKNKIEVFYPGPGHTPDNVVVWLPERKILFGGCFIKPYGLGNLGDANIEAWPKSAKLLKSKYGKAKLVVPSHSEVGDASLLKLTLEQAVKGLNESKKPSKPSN
Method in brief: (§2)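 Enzyme (1 pM NDM-1, 2 pM IMP-1, 30 pM VIM-1) incubated with inhibitor (20 to 0.00063 μM) and 1.25 μM CCF2-FA in 100 mM KH2PO4 pH 7, 0.005% Tween-20, 10 μM ZnSO4, 2 h at 25 °C. Fluorescence read at 460 nm (ex 405 nm); IC50 by 4-parameter fit.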

NDM-1 = NDM-1 (Klebsiella pneumoniae, UniProt C7C422); test: as above; type: biochemical; conditions: CCF2-FA 1.25 μM, 2 hours at 25° C.
NDM-1, sequence (C7C422 29-270, looked up, species assumed): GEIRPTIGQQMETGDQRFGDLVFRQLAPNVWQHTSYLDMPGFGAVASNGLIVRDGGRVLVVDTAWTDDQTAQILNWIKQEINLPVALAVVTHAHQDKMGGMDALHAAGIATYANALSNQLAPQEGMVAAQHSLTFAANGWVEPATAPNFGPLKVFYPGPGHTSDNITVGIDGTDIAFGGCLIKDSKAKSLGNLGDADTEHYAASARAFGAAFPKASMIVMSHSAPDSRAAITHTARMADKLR
Method in brief: as §2

VIM-1 = VIM-1 (Pseudomonas aeruginosa, UniProt A0A0F7KYQ8); test: as above; type: biochemical; conditions: CCF2-FA 1.25 μM, 2 hours at 25° C., read-out: VIM1 IC50
Method in brief: as §2

[4] = E. coli CLB30016 (NDM-1), 95% inhibition of growth
[5] = S. marcescens CL5741 (IMP-1), 95% inhibition of growth
[6] = K. pneumoniae IHMA599644 (VIM-1), 95% inhibition of growth
[7] = NDM-1 enzyme 1 pM, read-out: NDM1 IC50
[8] = 95% inhibition of bacterial growth, strain CLB30016
[9] = 95% inhibition of bacterial growth, strain CL5741
[10] = 95% inhibition of bacterial growth, strain IHMA599644
[11] = enzyme 1 pM, read-out: NDM1 IC50

SMILES | NDM1 EC30016 MITC95 [1, 4] [µM] | IMP1 SM5741 MITC95 [2, 5] [µM] | VIM1 KP599644 MITC95 [3, 6] [µM] | IC50 (IMP-1; IMP-1 enzyme 2 pM) [µM] | IC50 (NDM-1; [7]) [µM] | IC50 (VIM-1; VIM-1 enzyme 30 pM) [µM] | NDM1 EC30016 MITC95 [1, 8] [µM] | IMP1 SM5741 MITC95 [2, 9] [µM] | VIM1 KP599644 MITC95 [3, 10] [µM] | IC50 (IMP-1; enzyme 2 pM) [µM] | IC50 (NDM-1; [11]) [µM] | IC50 (VIM-1; enzyme 30 pM) [µM] | IC50 (NDM-1; NDM1 IC50, enzyme 1 pM) [µM]
CCC[C@H](C(=O)O)[C@H](Cc1cccc(-c2cccc(OC3CCNCC3)n2)c1)c1nn[nH]n1 [Example 348, (2S)-2-[(1S)-2-{3-[6-(piperidin-4-yloxy)pyridin-2-yl]phenyl}-1-(2H-tetrazol-5-yl)ethyl]pentanoic acid] | 18.8 | 6.2 | 18.8 | 0.54 | 0.022 | 0.0022 | – | – | – | – | – | – | –
CCC[C@H](C(=O)O)[C@H](Cc1ccc(-c2cnc(N(C)C)nc2)nc1)c1nnn[nH]1 [Example 163, (2S)-2-[(1S)-2-{6-[2-(dimethylamino)pyrimidin-5-yl]pyridin-3-yl}-1-(1H-tetrazol-5-yl)ethyl]pentanoic acid] | – | – | – | – | – | – | 38 | 16 | 125 | 0.6 | 0.025 | 0.0038 | –
CCC[C@H](C(=O)O)[C@H](Cc1ccc(C2=CCNCC2)cn1)c1nnn[nH]1 [Example 165, (2S)-2-[(1S)-2-(1′,2′,3′,6′-tetrahydro-3,4′-bipyridin-6-yl)-1-(1H-tetrazol-5-yl)ethyl]pentanoic acid] | – | – | – | – | – | – | 3.1 | 150 | 25 | > 20 | – | 0.068 | 1.5
CC(C)C[C@H](C(=O)O)[C@H](Cc1ccc(N2CCCC(CO)C2)nc1)c1nnn[nH]1 (stereo partly drawn) [Example 309, (2S)-2-[(1S)-2-{6-[3-(hydroxymethyl)piperidin-1-yl]pyridin-3-yl}-1-(1H-tetrazol-5-yl)ethyl]-4-methylpentanoic acid] | 6.2 | 6.2 | 75 | 0.15 | 0.062 | 0.024 | – | – | – | – | – | – | –
CCC[C@H](C(=O)O)[C@H](Cc1ccc(N2CCN(c3ccncc3)CC2)cc1)c1nn[nH]n1 [Example 227, (2S)-2-[(1S)-2-[4-(4-pyridin-4-ylpiperazin-1-yl)phenyl]-1-(2H-tetrazol-5-yl)ethyl]pentanoic acid] | – | – | – | – | – | – | 16 | 12.5 | 75 | 0.38 | 0.054 | 0.051 | –
CC(C)C[C@H](C(=O)O)[C@H](Cc1ccc(Oc2cccc3c2CCNC3)nc1)c1nn[nH]n1 [Example 388, (2S)-4-methyl-2-[(1S)-2-[6-(1,2,3,4-tetrahydroisoquinolin-5-yloxy)pyridin-3-yl]-1-(2H-tetrazol-5-yl)ethyl]pentanoic acid] | 25 | 18.8 | 38 | 0.34 | 0.13 | 0.018 | – | – | – | – | – | – | –
CCC[C@H](C(=O)O)[C@H](Cc1ccc(N2CCN(CCO)CC2)cc1)c1nn[nH]n1 [Example 225, (2S)-2-[(1S)-2-{4-[4-(2-hydroxyethyl)piperazin-1-yl]phenyl}-1-(2H-tetrazol-5-yl)ethyl]pentanoic acid] | – | – | – | – | – | – | 25 | 12.5 | 50 | 0.28 | 0.11 | 0.066 | –
CCC[C@H](C(=O)O)[C@H](Cc1ccc(N)cn1)c1nnn[nH]1 [Example 111, (S)-2-((S)-2-(5-aminopyridin-2-yl)-1-(1H-tetrazol-5-yl)ethyl)pentanoic acid] | – | – | – | – | – | – | 0.49 | 44 | 5.5 | 7.7 | 0.23 | 0.077 | –
CCC[C@H](C(=O)O)[C@H](Cc1ccccc1-c1ccc(N)nc1)c1nn[nH]n1 [Example 398, (2S)-2-[(1S)-2-[2-(6-aminopyridin-3-yl)phenyl]-1-(2H-tetrazol-5-yl)ethyl]pentanoic acid] | 3.1 | 75 | 25 | 1.1 | 0.0016 | 0.01 | – | – | – | – | – | – | –
CCC[C@H](C(=O)[O-])[C@H](Cc1ccc(C2CC[N+](C)(C)CC2)cc1)c1nnn[nH]1 [Example 294, (S)-2-((S)-2-(4-(1,1-dimethylpiperidin-1-ium-4-yl)phenyl)-1-(1H-tetrazol-5-yl)ethyl)pentanoate] | 12.5 | 9.4 | 25 | 0.69 | 0.17 | 0.076 | – | – | – | – | – | – | –
CC(C)[C@H](C(=O)O)[C@H](Cc1ccc(C2CCNC2)nc1)c1nnn[nH]1 (stereo partly drawn) [Example 105, (2S,3S)-2-isopropyl-4-(6-(pyrrolidin-3-yl)pyridin-3-yl)-3-(1H-tetrazol-5-yl)butanoic acid] | – | – | – | – | – | – | 3.1 | 50 | 12.5 | 14 | 0.17 | 0.02 | –
CC(C)[C@H](C(=O)O)[C@H](Cc1cccc(NCCO)n1)c1nnn[nH]1 [Example 138, (2S,3S)-4-(6-((2-hydroxyethyl)amino)pyridin-2-yl)-2-isopropyl-3-(1H-tetrazol-5-yl)butanoic acid] | – | – | – | – | – | – | 3.1 | >200 | 75 | > 20 | 0.49 | 0.67 | –
CCC[C@H](C(=O)O)[C@H](Cc1ccc(C2CCNCC2)nc1)c1nnn[nH]1 [Example 408, (S)-2-((S)-2-(6-(piperidin-4-yl)pyridin-3-yl)-1-(1H-tetrazol-5-yl)ethyl)pentanoic acid] | 7.813 | 75 | 25 | 3.45 | 0.25 | 0.00649 | – | – | – | – | – | – | –
CCC[C@H](C(=O)O)[C@H](Cc1cccc(-c2ccc(C(N)=O)cc2)c1)c1nn[nH]n1 [Example 351, (2S)-2-[(1)-2-(4′-carbamoylbiphenyl-3-yl)-1-(2H-tetrazol-5-yl)ethyl]pentanoic acid] | 7.8 | 0.59 | 25 | 0.024 | 0.00078 | 0.0016 | – | – | – | – | – | – | –
CCC[C@H](C(=O)O)[C@H](Cc1ccc(CN)cc1)c1nnn[nH]1 [Example 54, (S)-2-((S)-2-(4-(aminomethyl)phenyl)-1-(1H-tetrazol-5-yl)ethyl)pentanoic acid] | – | – | – | – | – | – | 18.8 | 75 | 12.5 | 13 | 1.6 | 0.04 | –
CC(C)CC(C(=O)O)[C@H](Cc1ccc(S(C)(=O)=O)cc1)c1nn[nH]n1 (stereo partly drawn) [Example 51, CAN-4-methyl-2-((S)-2-(4-(methylsulfonyl)phenyl)-1-(2H-tetrazol-5-yl)ethyl)pentanoic acid] | – | – | – | – | – | – | 75 | 25 | 150 | 0.54 | 0.18 | 0.025 | –
CCC[C@H](C(=O)O)[C@H](Cc1ccc(S(=O)(=O)C2CC2)nc1)c1nnn[nH]1 [Example 86, (2S)-2-[(1S)-2-[6-(cyclopropylsulfonyl)pyridin-3-yl]-1-(1H-tetrazol-5-yl)ethyl]pentanoic acid] | – | – | – | – | – | – | 50 | 125 | 100 | 3.3 | 0.13 | 0.011 | –
